In brackets after ≈: the same amount, converted by molar mass. Marks after values point to notes of the source that are not given here. Values belong to the compound of their own block, whether it stands above or below them.
Key:
Assay type in all cases: cell-based, human
[1] = test system: c-myc, c-fms, c-fos and c-jun in HL-60 cells; assay: Expression of proto-oncogenes (RNA blot)
Experimental: Total RNA was isolated from HL-60 cells using an RNAzol B kit (Biotecx, Galveston, Tex.) and quantified spectrophotometrically. Total cellular RNA (20 μg) from control or 278E-treated cells was electrophoresed on a 1.2% agarose gel and transferred to a nylon membrane. The blots were probed with radiolabeled cDNA of c-myc, c-fms, c-fos and c-jun. Glyceraldehyde-3-phosphate dehydrogenase (G3PDH) was used as an internal control.

[2] = test system: HL-60 cells; assay: Maturation profiles (morphology, Wright's stain)
Experimental: (§1) After 5 days of treatments (1-5 μg/ml of 278E) as described in Example 1, HL-60 cells were collected and cytocentrifuged onto a microscope slide using a Cytospin, stained with Wright's stain and observed under an inverted microscope (Olympus) with a magnification of 1000×. Based on morphology, the cells were classified as: (1) immature blasts, (2) intermediates, or (3) mature monocytes or macrophages, and the ratio was counted respectively.

[3] = test system: HL-60 cells; assay: Assay for superoxide production (NBT reduction); conditions: 5 days
Experimental: It has been known that immature blast cells had little superoxide production. The differentiation of cells is further evidenced in changes of superoxide production. Cells collected from example 1 after treatment with 278E for 5 days were collected and resuspended in RPMI 1640 medium at a concentration of 1×10^6 cells/ml and incubated for 30 min at 37° C. with an equal volume of nitroblue tetrazolium test stock solution [containing 2 mg of NBT and 1 μM of phorbol myristate acetate per ml of phosphate buffered saline]. Cells were collected and cytocentrifuged onto a microscope slide using cytospin. Cytospin preparations were counter-stained with 0.5% safranin O. The percentage of formazan-containing cells (based on counting 200 cells) was assessed microscopically.

[4] = test system: HL-60 cells; assay: Induction of monocytic differentiation by various combination treatments
[5] = test system: HL-60 cells; assay: Assay for differentiation antigens (indirect immunofluorescence, flow cytometry); conditions: day 5
Experimental: An indirect immunofluorescence method was employed in the invention to detect the expression of monocyte-associated antigens on the surface of HL-60 cells after induction of differentiation. 278E-treated cells collected from day 5 cultures were treated with primary monoclonal antibodies, washed with PBS and then exposed to a solution containing […] (FITC) conjugated secondary antibody, goat F(ab′)2 antimouse IgG (Cappel, Cochranville, Pa.). The aforementioned monoclonal antibodies against human monocytes included anti-CD 11b, anti-CD14 (Serotec, Oxford, UK), and anti-CD68 (Dakopatts, Glostrup, Denmark). The percentage of positive cells analyzed with a FACScan flow cytometer (Becton Dickenson, Franklin Lakes, N.J.) and Lysis II software (Becton Dickinson) is shown in Table 2.

[6] = test system: HL-60 cells; assay: Assay for cell growth inhibition (Trypan blue dye exclusion); conditions: for inhibition at 5 µg/mL: 5 μg/ml
Text: The human myeloid leukemic cell line HL-60 is known to be induced by several biological agents or chemical drugs to differentiate into mature cells. The results of differentiation can be cell morphological changes, cell chemical changes or functionally mature changes. Therefore, HL-60 cells were often applied in many differentiation studies of leukemic cells. The present invention used the human myeloid leukemic cell line HL-60 (ATCC, Manassas, Va.) to study the cell differentiation inducting ability of 278E.
The HL-60 cells were cultured in RPMI 1640 medium containing 10% fetal bovine serum and maintained in an exponential growth state. For assay of cytotoxicity, cells were incubated at an initial concentration of 1×10^5 cells/ml in the presence of various concentrations of 278E compounds (1-6 μg/ml) for 1-5 days.

[7] = test system: HL-60 cells; assay: Induction of monocytic differentiation by various combination treatments; remark: listed apart in the source
Experimental: as §1, with “[…])” for “278E)”, “[…] These combination treatments included: […]” for “(1) immature blasts, (2) intermediates, or (3) mature monocytes or macrophages, and the ratio was counted respectively.”

IC50 ([6]; Homo sapiens, HL-60 cells, viable cell count, 1-6 μg/ml for 1-5 days, read-out: concentration yielding 50% inhibition (IC50)): 3.48 mg/L (≈ 8.01 µM)
SMILES: COc1cc(-c2oc3c(OC)cc(CCCO)cc3c2CO)ccc1Oc1ccccc1 [278E]
expression of c-myc ([1]; 6 μg/ml, 16 hour treatment (FIG. 4A)): markedly suppressed
expression of c-fms ([1]; after treatment (FIG. 4B)): enhanced
expression of c-jun ([1]; after treatment (FIG. 4C)): enhanced
expression of c-fos ([1]; after treatment (FIG. 4D)): enhanced
cell morphology ([2]; after 5 days of treatment (FIG. 2B)): many cells exhibited changes in characteristics
percentage of mature monocyte/macrophage ([2]; after 5 days of treatment (FIG. 3), concentration not given): 82.0±6.3%
NBT reduction, Positive cells (%) ([3]; 1 μg/ml): 0.3 ± 0.3%
NBT reduction, Positive cells (%) ([3]; 2 μg/ml): 1.8 ± 1.2%
NBT reduction, Positive cells (%) ([3]; 3 μg/ml): 9.3 ± 2.8%
NBT reduction, Positive cells (%) ([3]; 4 μg/ml): 59.0 ± 12.6 ^a %
monocytes/macrophages (%) ([4]; 278E 6 μg/m with H7 15 μM): 51.3 ± 5.3%
monocytes/macrophages (%) ([4]; 278E 6 μg/ml alone): 56.1 ± 6.2%
monocytes/macrophages (%) ([4]; 278E 6 μg/ml with Staurosporine 10 nM): 55.6 ± 4.7%
Positive cells (%) CD11b ([5]; 1 μg/ml): 1.8 ± 0.5%
Positive cells (%) CD14 ([5]; 1 μg/ml): 1.5 ± 0.4%
Positive cells (%) CD68 ([5]; 1 μg/ml): 1.4 ± 0.4%
Positive cells (%) CD11b ([5]; 2 μg/ml): 2.6 ± 0.6%
Positive cells (%) CD14 ([5]; 2 μg/ml): 2.1 ± 0.6%
Positive cells (%) CD68 ([5]; 2 μg/ml): 1.8 ± 0.4%
Positive cells (%) CD11b ([5]; 3 μg/ml): 18.1 ± 6.5 ^a %
Positive cells (%) CD14 ([5]; 3 μg/ml): 5.8 ± 2.8%
Positive cells (%) CD68 ([5]; 3 μg/ml): 5.6 ± 2.1%
Positive cells (%) CD11b ([5]; 4 μg/ml): 62.1 ± 10.4 ^a %
Positive cells (%) CD14 ([5]; 4 μg/ml): 47.7 ± 10.6 ^a %
Positive cells (%) CD68 ([5]; 4 μg/ml): 34.5 ± 9.9 ^a %
Positive cells (%) CD11b ([5]; 5 μg/ml): 79.6 ± 9.8 ^a %
Positive cells (%) CD68 ([5]; 5 μg/ml): 53.7 ± 10.0 ^a %
effect on cell viability compared with untreated cells ([6]; 1 μg/ml): minimal effect
inhibition at 5 µg/mL ([6]; Homo sapiens, HL-60, 72 h, day 3): 85.5 ± 2.8%
inhibition at 5 µg/mL ([6]; Homo sapiens, HL-60, 120 h, day 5): 91.7 ± 1.7%
growth of HL-60 cells ([6]; dose- and time-dependent (FIG. 1)): inhibited significantly

SMILES: CCCCCCCCCCCCCC(=O)O[C@@H]1[C@@H](C)[C@@]2(O)[C@@H](C=C(CO)C[C@]3(O)C(=O)C(C)=C[C@@H]23)[C@H]2C(C)(C)[C@]12OC(C)=O [TPA]
differentiation-inducing activity after pretreatment of PKC inhibitor H7 and staurosporine ([7]; HL-60 cells, Table 3): suppressed
monocytes/macrophages (%) ([7]; TPA 10 ng/ml alone): 76.8 ± 7.2%
monocytes/macrophages (%) ([7]; TPA 10 ng/ml with H7 15 μM): 30.2 ± 4.5%
monocytes/macrophages (%) ([7]; TPA 10 ng/ml with Staurosporine 10 nM): 35.0 ± 2.3%

SMILES: CC1CNCCN1S(=O)(=O)c1cccc2cnccc12 (centres unmarked) [H7]
monocytes/macrophages (%) ([7]; H7 15 μM alone): 0%

SMILES: CN[C@@H]1C[C@H]2O[C@@](C)([C@@H]1OC)n1c3ccccc3c3c4c(c5c6ccccc6n2c5c31)C(=O)NC4 [Staurosporine]
monocytes/macrophages (%) ([7]; Staurosporine 10 nM alone): 0%

Reference: patent US20070232690A1, “Composition for inducing differentiation of leukemic cells and application thereof” (Mackay Memorial Hospital, priority 2006, published 2007)
